In patent US20240269296A1, “ANTIOXIDANT NUCLEOLIPID PRODRUG, PHARMACEUTICAL COMPOSITION FOR ADMINISTRATION THEREOF, AND THERAPEUTIC USES THEREOF” (UNIVERSITE DE BORDEAUX, priority 2021, published 2024):

Test system: keratinocytes
Test: Antioxidant effect on keratinocytes: ROS by flow cytometry with CM-H2DCFDA after solar simulator irradiation
Format: cell-based
Conditions: 2nd experiment: incubation 48 h, 0.5% w/v in the culture medium
From the text: The assessment of the antioxidant effect of the compositions C3 and C4 according to the invention has been based on the dosage of the amount of reactive oxygen species (ROS) produced in the medium by flow cytometry, after setting the cells treated with these compositions in presence with the oxidative stress indicator CM-H2DCFDA (5-(and-6)-chlorométhyl-2′,7′-dichlorodihydrofluorescein diacetate, acetyl ester) (Invitrogen®). By cleavage of its acetate groups with esterases and its intracellular oxidation by the ROS, this non-fluorescent indicator is converted into highly-fluorescent dichlorofluorescein 2′,7′ (DCF). Thus, the measurement of the fluorescence intensity allows deducing the amount of DCF, and consequently of ROS, in the cell medium. […]
Afterwards, the cells have been detached by tryptinisation by means of trypsin at 0.0025% and EDTA at 0.01% for 10 min at 37° C., neutralised by fetal calf serum at 10% and separated from the medium by centrifugation. […] Afterwards, the fluorescence has been read by a flow cytometer Accuri® 6.
The obtained results, expressed in % of mean fluorescence intensity (MFI) with respect to the non-irradiated (and without C4) control condition, are shown in FIG. 11. […]

`Cc1c(C)c2c(c(C)c1O)CC[C@@](C)(CCC[C@H](C)CCC[C@H](C)CCCC(C)C)O2` [α-tocopherol] was tested, and the “production of ROS (% of mean fluorescence intensity vs non-irradiated control)” value was “strongly inhibits the production of ROS”.
